Consider five molecules from patent US20180319786A1, “INHIBITOR OF THE P2X7 RECEPTOR” (H. Lundbeck A/S, priority 2015, published 2018).

Structures are written as SMILES.

One experiment deals with T1, human P2X7 receptors (Homo sapiens, UniProt Q99572).
T1 construct: expressed in transfected cells; host or cells: HEK293
T1 sequence (Q99572 1-595): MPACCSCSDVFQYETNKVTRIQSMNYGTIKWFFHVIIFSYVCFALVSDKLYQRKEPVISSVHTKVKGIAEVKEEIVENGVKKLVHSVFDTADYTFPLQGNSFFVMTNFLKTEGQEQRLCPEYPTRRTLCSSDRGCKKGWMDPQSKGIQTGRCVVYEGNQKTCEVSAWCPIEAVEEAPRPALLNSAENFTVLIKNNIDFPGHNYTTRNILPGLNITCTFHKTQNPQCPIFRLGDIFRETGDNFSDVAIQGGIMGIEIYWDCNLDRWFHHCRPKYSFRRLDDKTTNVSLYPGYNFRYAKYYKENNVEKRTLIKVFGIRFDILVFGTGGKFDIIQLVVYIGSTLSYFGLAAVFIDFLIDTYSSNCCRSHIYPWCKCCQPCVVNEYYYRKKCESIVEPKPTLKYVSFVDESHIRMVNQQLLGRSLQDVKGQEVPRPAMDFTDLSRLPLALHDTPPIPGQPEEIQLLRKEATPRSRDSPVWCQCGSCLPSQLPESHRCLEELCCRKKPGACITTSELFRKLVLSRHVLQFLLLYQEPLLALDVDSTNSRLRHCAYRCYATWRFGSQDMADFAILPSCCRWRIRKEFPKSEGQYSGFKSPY
As to the kind of experiment: P2X7 FLIPR assay. It counts as cell-based. To be noted: Human P2X7 in HEK293 cells, BzATP 8 μM, Ca2+ mobilization. On the procedure:
HEK293 cells stably expressing either human, mouse, or rat P2X7 receptors were plated in 384-well poly-D-lysine-coated black FLIPR plates (Greiner One, Cat #781946) using 1.5% FBS media 24 hours before the assay. Sucrose buffer, pH 7.4 was used for the human-P2X7 assay (5 mM of potassium chloride, 9.6 mM NaH2PO4.2H2O, 25 mM Hepes, 0.5 mM CaCl2, 5 mM glucose, 280 mM sucrose and 1.0 mM probenecid (Sigma, St. Louis, Mo.)). Hank's balanced salt solution buffer, pH 7.4 was used for the rat-P2X7 assay (1×HBSS buffer supplemented with 20 mM Hepes plus 2.5 mM probenecid (Sigma, St. Louis, Mo.) and 0.05% bovine serum albumin After removing the media, the plates were loaded with 30 μL of Fluo-4 NW (Molecular Probes, F36206), and were incubated at 37° C. for 30 min in a humidified chamber (5% CO2/95% air), and for 30 min at RT. Mobilization of intracellular Ca^+2 in response to different ligands was measured online using the FLIPR Tetra reader. In the assay, baseline fluorescence was measured for 15 seconds, then 15 μL of 4× compounds (40 μM) was added, fluorescence was monitored for 3 min for agonist activity, 15 μL of 4×BzATP (hP2X7 1×8 μM, rP2X7 1×15 μM) was added and after a 30 min incubation at room temperature the fluorescence was read for 3 min for IC50 determination.
For orientation: Calcium flux is commonly read through the fluorescence of an indicator in the cells.

In a further experiment the test system is SNI rats. As to the kind of experiment: SNI model of neuropathic pain (von Frey mechanical allodynia). Format: in vivo, rat. To be noted: for reversal of mechanical hypersensitivity: SNI rats 3-4 weeks post injury. The procedure: (§1) Male Sprague Dawley rats (Charles River, Germany) weighing 250-300 g on the day of gabapentin administration were used (n=8-10 per group). The animals were housed in Macrolon III cages (20×14×18 cm or 20×40×18 cm; in groups of 3-5 per cage according to weight) containing wood-chip bedding material (3×1×4 mm) in an air-conditioned building with controlled environmental parameters (relative humidity 55±15%, temperature 20±2° C., and light from 06.00 to 19.00 h). Food and water were available ad libitum. The rats were allowed to habituate to the housing facilities for at least one week prior to being assigned to behavioral experiments whereupon they were randomly distributed across treatment groups. All experiments were performed according to the Ethical Guidelines of the International Association for the Study of Pain and the Danish Committee for Experiments on Animals.
A spared nerve injury (SNI) was performed in rats (body weight 180-220 g at the time of surgery) as described previously [Decosterd, I. and C. J. Woolf, Pain, 2000. 87(2): p. 149-581. Anaesthesia was induced and maintained by 2% isoflurane (Baxter A/S, Alleroed, Denmark), combined with oxygen (30%) and nitrous oxide (68%). Next, the skin of the lateral left thigh was incised and the cranial and caudal parts of the biceps femoris muscle were separated and held apart by a retractor to expose the sciatic nerve and its three terminal branches: the sural, common peroneal and tibial nerves. The tibial and common peroneal nerves were tightly ligated with 4/0 silk and 2-3 mm of the nerve distal to the ligation was removed. Any stretching or contact with the intact sural nerve was avoided. […] The presence of mechanical allodynia was assessed using a series of calibrated von Frey hairs (lower limit=0.06 and upper limit=13.5 g, Stoelting Co, Wood Dale Ill.), which were applied to the lateral aspect of the plantar surface of the hindpaw with increasing force until an individual filament used just started to bend. […]

Another experiment relates to CCI animals. Nature of the experiment: Chronic constrictive injury (CCI) model of neuropathic pain (von Frey PWT). Format: in vivo, rat. The conditions noted are these: 100 mg/kg, PWT 120 minutes following administration, p<0.05. On the procedure: Male Sprague Dawley rats (Harlan) were used in the study. Upon receipt, rats were group housed with 2-3 per cage in standard cages. Rats were allowed to acclimate for up to 1 week prior to surgery. All rats were examined and weighed prior to initiation of the study to assure adequate health and suitability. During the course of the study, 12/12 light/dark cycles were maintained. The room temperature was maintained between 20° C. and 23° C. with a relative humidity maintained around 50%. Chow and water were provided ad libitum for the duration of the study. All testing was performed during the animals' light cycle phase. Rats were single housed after surgery.
This surgery was performed according to Bennett and Xie (1988). […] Each rat was monitored until awake and moving freely around the recovery chamber. […]
Paw withdrawal from a mechanical stimulus was measured by applying von Frey filaments of ascending bending force to the plantar surface of the hind paws (ipsilateral and contralateral). Baseline and post-treatment withdrawal threshold values for non-noxious mechanical sensitivity were evaluated using von Frey filaments (Semmes-Weinstein filaments, Stoelting, Wood Dale, Ill., USA) of varying stiffness (0.4, 0.7, 1.2, 2.0, 3.6, 5.5, 8.5, 10, 15, 26 g). […]
Data were analyzed by Analysis of variance (ANOVA), followed by post-hoc comparisons when appropriate. […]

A further experiment has as its system CFA inflamed rats. Nature of the experiment: CFA-induced inflammatory hyperalgesia (paw pressure threshold). It counts as in vivo, rat. The procedure: as §1
Individual rats received a subcutaneous injection of CFA (50% in saline, 100 μl total volume, Sigma Aldrich) into the plantar surface of the hindpaw. All rats were then immediately returned to their homecage. The day prior to this (pre-CFA baseline response), and then again 24 h post CFA injection (post-CFA baseline response), hindpaw paw pressure thresholds were measured to obtain an index of evoked mechanical hyperalgesia [Ref: Munro, G., et al., Neuropharmacology, 2011. 61(1-2): p. 121-132.1. To do this, the investigator gently restrained the rat prior to the application of progressively increasing mechanical pressure to the mid hindpaw region using an electronic version of the Randall-Selitto device (HTC, U.S.A.) The point at which the rat attempted to make a reflex hindpaw withdrawal which in some instances was followed by vocalization was recorded as the paw pressure threshold (g). […] Thereafter, CFA inflamed rats received oral administration of (S)-N-(2-(4-chlorophenyl)-2-morpholinoethyl)-2-(pyrimidin-2-yl)-4-(trifluoromethyl)thiazole-5-carboxamide or vehicle with the investigator blinded to treatment and the paw pressure threshold measured again 60 minutes later.

With `O=C(NCC(c1ccc(Cl)cc1)N1CCOCC1)c1sc(-c2ncccn2)nc1C(F)(F)F` (racemic) [Compound (III), (±)-N-(2-(4-chlorophenyl)-2-morpholinoethyl)-2-(pyrimidin-2-yl)-4-(trifluoromethyl)thiazole-5-carboxamide], at human P2X7 receptors, inhibition was half-maximal at 32 ± 13 nM (IC50).
In the case of `NCC1(CC(=O)O)CCCCC1` [gabapentin, reference compound], the “reversal of mechanical hypersensitivity” value with SNI rats (100 mg/kg dose) worked out at 132 % reversal. The “PWT compared to vehicle treatment” value with CCI animals is given as “significantly increased”.
Take `O=C(NC[C@@H](c1ccc(Cl)cc1)N1CCOCC1)c1sc(-c2ncccn2)nc1C(F)(F)F` [Compound (II), (R)-N-(2-(4-chlorophenyl)-2-morpholinoethyl)-2-(pyrimidin-2-yl)-4-(trifluoromethyl)thiazole-5-carboxamide]: the midpoint of inhibition on human P2X7 receptors, the IC50, lay at 89 ± 13 nM.
For the molecule `O=C(O)Cc1ccccc1Nc1c(Cl)cccc1Cl` [diclofenac, reference compound], the “reversal of mechanical hyperalgesia” value with CFA inflamed rats (NSAID comparator, dose not given) worked out at 84 % reversal.
For the molecule `O=C(NC[C@H](c1ccc(Cl)cc1)N1CCOCC1)c1sc(-c2ncccn2)nc1C(F)(F)F` [Compound (I), (S)-N-(2-(4-chlorophenyl)-2-morpholinoethyl)-2-(pyrimidin-2-yl)-4-(trifluoromethyl)thiazole-5-carboxamide], the IC50 – broadly, the concentration that gives 50% inhibition – against human P2X7 receptors stood at 12 ± 10 nM. Also, the “reversal of mechanical hyperalgesia” value in the experiment with CFA inflamed rats (30 mg/kg dose, oral, paw pressure threshold 60 minutes later, 24 h post CFA) turned out to be 62 % reversal. In the experiment on CFA inflamed rats (oral, F(4.49)=30.692, P<0.001), the “effect on mechanical hyperalgesia” value is “significantly reversed”. For the same molecule, the “reversal of mechanical hypersensitivity” value with SNI rats (30 and 100 mg/kg tested, dose of this value not stated) was 108 % reversal. Further, the “effect on mechanical hypersensitivity” value in the experiment on SNI rats (30 and 100 mg/kg, F(3.47)=12.522, P<0.001) is “dose dependently reversed”. Besides, the “PWT compared to vehicle treatment” value with CCI animals is “significantly increased”.
